Reference: patent US20120295844A1, “USE OF APROTININ FOR TREATING PARASITIC INFECTIONS AND PROGNOSING BOVINE TRYPANOTOLERANCE” (priority 2010, published 2012)

Legend:
[1] = test system: NO production by J774.2 macrophage line cells; assay: NO production inhibition by J774.2 macrophage line (Griess assay); format: cell-based, mouse; conditions: LPS + IFNγ stimulated J774.2 cells, 15 hours
Procedure: (§1) Two different vials of the J774.2 line were used at the 8th and 9th passages. The cells from these vials were placed in culture in parallel, and the tests were triplicated. The cells were first stimulated with Lipopolysaccharide (LPS, InvivoGen) at a concentration of 100 ng/ml and with mouse interferon gamma (IDNγ, AbD serotex) at a final concentration of 10 ng/ml and incubated in the absence (control) or in the presence of various concentrations of BPTI (range of 12.5 to 100 μM) for 15 hours at 37° C./5% CO2 in a complete medium containing DMEM glutamax (Gibco) supplemented with 10% foetal calf serum (FCS) and 1% penicillin/streptamycin. The quantity of NO produced was determined by means of a colorimetric assay according to the Griess principle (Pinelli et al., Vet. Parasitol., 2000, 92: 181-189). For each BPTI concentration, NO production inhibition percentage is calculated according to the following formula: […]

[2] = test system: NO production by RAW 264.7 macrophage line cells; assay: NO production inhibition by RAW 264.7 macrophage line (Griess assay); format: cell-based, mouse; conditions: LPS + IFNγ stimulated RAW 264.7 cells
Procedure: as §1
Two different vials of the RAW 264.7 line were used at the 10th and 11th passages. The cells from these vials were placed in culture in parallel, and the tests were triplicated and performed as described above.

[3] = test system: NO production by bovine macrophages; assay: NO production inhibition by bovine macrophages derived from circulating monocytes; format: cell-based; conditions: LPS + bovine IFNg
Procedure: as §1
Bovine monocytes were isolated from circulating monocytes. Two independent tests were performed and each of the tests was triplicated. The monocytes were stimulated with LPS at a concentration of 250 ng/ml and bovine IFNg at a final concentration of 10 ng/ml. The cells were then incubated in the absence ([…]) for 20 hours (test 1) and 24 hours (test 2) at 37° C./5% CO2 in IMDM complete medium containing IMDM supplemented with L-glutamine at […] final, gentamicin at 50 μg/ml final, 10% FCS and 5×10^−5 M b-mercaptoethanol.

[4] = test system: Trypanosoma congolense IL1180; assay: Viability of Trypanosoma congolense IL1180 cultured in vitro (FACS, microscopy); format: cell-based; conditions: for mortality induced by BPTI (natural mortality subtracted): 48 hours
Procedure: Before adding BPTI and for measurement times: 1.5 hours, 17 hours and 24 hours, the parasites (Trypanosoma congolense IL1180) are clearly visible; their form is as expected (fusiform), and they are mobile. However, the mortality becomes increasingly visible over time. The impact of BPTI on morphology is perceptible 17 hours (and thereafter) after adding BPTI to the culture. […] In order to analyze the effect of BPTI on parasite viability, flow cytometry measurements were made at different times (1.5 hours, 17 hours, 24 hours and 48 hours after adding 100 μM or 200 μM of BPTI for parasite concentrations of 5×10^6 parasites/ml and 10×10^6 parasites/ml). The results obtained are represented in graphs A and B in FIG. 7. There is a “natural” mortality of Trypanosoma congolense in vitro, due to the difficulty maintaining sanguicolous forms of Trypanosoma congolense in liquid culture. This mortality increases over time and reaches values of 49.1% and 47.1% under conditions using 5.10^6 parasites/ml and 10.10^6 parasites/ml, respectively. However, a trypanocidal action of BPTI may be observed on trypanosome cultures, a slight dose-dependent effect of BPTI on parasite viability may be recorded. The effect of BPTI is extremely significant and appears to be also time-dependent. […] The mortality induced by BPTI on a population of 5×10^6 trypanosomes (10×10^6 parasites/ml) under the same conditions is 49.6% and 48.8%, respectively (see graphs A and B in FIG. 8).

[5] = test system: Leishmania donovani infantum (Ldi); assay: Viability and growth of Leishmania donovani infantum (Ldi) cultured in vitro (FACS); format: cell-based; conditions: BPTI 50, 100, 200 μM
Procedure: The growth and viability of Leismania donovani infantum parasites were measured by FACS at 4, 12, 24, 48, 72, 144 and 168 hours of culture after addition of BPTI at concentrations of 50, 100 and 200 μM. The results are presented in graphs A and B in FIG. 10.
The effect of BPTI was tested for each time value with a non-parametric test (Kruskal-Wallis test).

[6] = test system: "trypsin-like" (serine protease) in Trypanosoma congolense (Tc. IL1180) lysates; assay: BAPNA degradation by Trypanosoma congolense (Tc. IL1180) lysates; format: biochemical; conditions: BPTI 3.125 mg/ml or 481.25 μM or 625 μg/well, BAPNA 0.315 mM
Procedure: (§2) The parasites were placed in rodent culture and purified on a DEAE cellulose column. The parasites were then counted, and lysed by means of 4 successive 1-minute passages in liquid nitrogen and in a water-bath at 37° C. The tests were conducted on three independent procedures in triplicate using […]. The method used for detecting “trypsin-like” (serine protease) consists of measuring, as a function of time, the initial degradation rate of a homogeneous substrate, N-benzoyl-ariginine-p-nitroaniline (BAPNA), under the effect of “trypsin-like” found in lysates in the presence of absence of BPTI. The appearance of the degradation product, p-nitroalinine (p-Na), which is yellow in colour, is measured by means of spectrophotometry at 405 nm. The enzyme activity calculation is performed according to the Beer-Lambert law.

[7] = test system: "trypsin-like" (serine protease) in Leishmania donovani infantum (Ldi) lysates; assay: BAPNA degradation by Leishmania donovani infantum (Ldi) lysates; format: biochemical; conditions: BPTI 625 μg; lysate alone 2.893
Procedure: as §2
(§3) Leishmania (Ldi and Ldd8) were placed in culture in RMPI supplemented with 10% FCS, 1% penicillin/streptomycin and 1% Ultraglutamine and placed in an incubator) 37° C./5% CO2 for one week. The leishmania are counted and lysed according to the protocol defined for trypanosome lysis. The method for detecting and the method for calculating the enzyme activity were identical to those used for trypanosomes. The tests using Ldi and Ldd8 were conducted on three independent procedures in triplicate using […].

[8] = test system: "trypsin-like" (serine protease) in Leishmania donovani donovani (Ldd8) lysates; assay: BAPNA degradation by Leishmania donovani donovani (Ldd8) lysates; format: biochemical; conditions: BPTI 625 μg; lysate alone 1.767
Procedure: as §2, §3

aprotinin [BPTI]
NO production inhibition ([1]; BPTI 12.5 μM): 1.7% | NO production inhibition ([1]; BPTI 25 μM): 16.2% | NO production inhibition ([1]; BPTI 50 μM): 30.1% | NO production inhibition ([1]; BPTI 100 μM): 59.5% | NO production inhibition ([2]; BPTI 12.5 μM): NO inhibition was observed | NO production inhibition ([2]; BPTI 25 μM): 0.2% | NO production inhibition ([2]; BPTI 50 μM): 16.1% | NO production inhibition ([2]; BPTI 100 μM): 47.6% | mean inhibition of NO production ([3]; Test 1, 20 hours, BPTI 12.5 μM): 8.4% | mean inhibition of NO production ([3]; Test 1, 20 hours, BPTI 25 μM): 14.2% | mean inhibition of NO production ([3]; Test 1, 20 hours, BPTI 50 μM): 32.6% | mean inhibition of NO production ([3]; Test 1, 20 hours, BPTI 100 μM): 70.5% | mean inhibition of NO production ([3]; Test 2, 24 hours, BPTI 6.25 μM): 12% | mean inhibition of NO production ([3]; Test 2, 24 hours, BPTI 12.5 μM): 25.9% | mean inhibition of NO production ([3]; Test 2, 24 hours, BPTI 25 μM): 62.5% | mean inhibition of NO production ([3]; Test 2, 24 hours, BPTI 50 μM): 70% | mean inhibition of NO production ([3]; Test 2, 24 hours, BPTI 100 μM): 60.2% | effect on parasite morphology (microscopic observation) ([4]; 17 hours and thereafter after adding BPTI to the culture): Spherical forms are observed | mortality induced by BPTI (natural mortality subtracted) ([4]; BPTI 100 μM, 2.5×10^6 trypanosomes (5×10^6 parasites/ml)): 46% | mortality induced by BPTI (natural mortality subtracted) ([4]; BPTI 100 μM, 5×10^6 trypanosomes (10×10^6 parasites/ml)): 49.6% | mortality induced by BPTI (natural mortality subtracted) ([4]; BPTI 200 μM, 2.5×10^6 trypanosomes (5×10^6 parasites/ml)): 47.4% | mortality induced by BPTI (natural mortality subtracted) ([4]; BPTI 200 μM, 5×10^6 trypanosomes (10×10^6 parasites/ml)): 48.8% | increase of in vitro parasite mortality ([4]; summary statement referring to Example 2): 50% | effect on the viability of leishmania (Kruskal-Wallis test) ([5]; 72 hours, P-value=0.05): at the limit of significance | effect on the viability of leishmania (Kruskal-Wallis test) ([5]; 144 hours, P-value=0.05): significant effect | effect on the number of leishmania (growth, Kruskal-Wallis test) ([5]; 168 hours only, P-value=0.03): significant effect | effect on the viability of leishmania (Kruskal-Wallis test) ([5]; 168 hours, P-value=0.03): significant effect | effect on the viability of leishmania (Kruskal-Wallis test) ([5]; other observation times (4, 12, 24, 48 hours)): not significant | mean inhibition of lysate enzyme activity [6]: 44.6% | lysate enzyme activity in the presence of BPTI ([6]; lysate alone 1.893): 1.048 (Standard deviation 0.073) | lysate enzyme activity with BPTI [7]: 1.555 | lysate enzyme activity with BPTI [8]: 1.0893
